From the NIST ThermoML archive (doi:10.1016/j.jct.2011.06.020)

Test: xn = mol fraction of the nth substance listed
Settings: for surface tension liquid-gas: Tensiometer with plate; for viscosity / mass density: 101 kPa, Liquid; for viscosity: Capillary tube (Ostwald / Ubbelohde) method; for mass density: Vibrating tube method

CN1CCNCC1 [N-methylpiperazine] + O
Settings	mass density [kg/m3]	surface tension liquid-gas [mN/m]	viscosity [mPa·s]
293.15 K, x1 = 0.1	–	47.64	–
293.15 K, x1 = 0.1998	–	43.4	–
293.15 K, x1 = 0.2994	–	38.68	–
293.15 K, x1 = 0.4073	–	35.89	–
293.15 K, x1 = 0.4983	–	34.37	–
293.15 K, x1 = 0.5934	–	33.18	–
293.15 K, x1 = 0.6979	–	32.35	–
293.15 K, x1 = 0.7994	–	31.68	–
293.15 K, x1 = 0.8978	–	31.15	–
293.15 K, x1 = 1	–	30.65	–
298.15 K, x1 = 0.0521	1001.67	–	3.324
298.15 K, x1 = 0.0725	1005.26	–	5.564
298.15 K, x1 = 0.1039	1009.54	–	10.76
298.15 K, x1 = 0.2091	1001.33	–	35.24
298.15 K, x1 = 0.3101	981.31	–	36.42
298.15 K, x1 = 0.4096	962.21	–	23.48
298.15 K, x1 = 0.5109	946.41	–	13.36
298.15 K, x1 = 0.608	933.25	–	7.957
298.15 K, x1 = 0.7065	922.31	–	4.893
298.15 K, x1 = 0.8069	913.72	–	3.383
298.15 K, x1 = 0.8819	906.76	–	2.552
298.15 K, x1 = 1	898.81	–	1.87
303.15 K, x1 = 0.0521	999.31	–	2.752
303.15 K, x1 = 0.0725	1002.36	–	4.48
303.15 K, x1 = 0.1	–	46.73	–
303.15 K, x1 = 0.1039	1005.87	–	8.223
303.15 K, x1 = 0.1998	–	42.1	–
303.15 K, x1 = 0.2091	996.94	–	25.01
303.15 K, x1 = 0.2994	–	38.07	–
303.15 K, x1 = 0.3101	976.94	–	25.74
303.15 K, x1 = 0.4073	–	35.25	–
303.15 K, x1 = 0.4096	957.88	–	17.12
303.15 K, x1 = 0.4983	–	33.82	–
303.15 K, x1 = 0.5109	942.03	–	10.17
303.15 K, x1 = 0.5934	–	32.73	–
303.15 K, x1 = 0.608	928.88	–	6.246
303.15 K, x1 = 0.6979	–	31.78	–
303.15 K, x1 = 0.7065	917.92	–	4.048
303.15 K, x1 = 0.7994	–	31.16	–
303.15 K, x1 = 0.8069	909.33	–	2.835
303.15 K, x1 = 0.8819	902.37	–	2.188
303.15 K, x1 = 0.8978	–	30.7	–
303.15 K, x1 = 1	894.43	30.34	1.618
308.15 K, x1 = 0.1	–	45.72	–
308.15 K, x1 = 0.1998	–	40.74	–
308.15 K, x1 = 0.2994	–	37.57	–
308.15 K, x1 = 0.4073	–	34.71	–
308.15 K, x1 = 0.4983	–	33.32	–
308.15 K, x1 = 0.5934	–	32.06	–
308.15 K, x1 = 0.6979	–	31.25	–
308.15 K, x1 = 0.7994	–	30.8	–
308.15 K, x1 = 0.8978	–	30.2	–
308.15 K, x1 = 1	–	29.86	–
313.15 K, x1 = 0.0521	994.17	–	1.987
313.15 K, x1 = 0.0725	996.21	–	3.048
313.15 K, x1 = 0.1	–	44.4	–
313.15 K, x1 = 0.1039	998.34	–	5.183
313.15 K, x1 = 0.1998	–	39.61	–
313.15 K, x1 = 0.2091	988.01	–	13.66
313.15 K, x1 = 0.2994	–	36.37	–
313.15 K, x1 = 0.3101	968.03	–	13.97
313.15 K, x1 = 0.4073	–	34.03	–
313.15 K, x1 = 0.4096	949.09	–	9.817
313.15 K, x1 = 0.4983	–	32.66	–
313.15 K, x1 = 0.5109	933.18	–	6.25
313.15 K, x1 = 0.5934	–	31.58	–
313.15 K, x1 = 0.608	920.04	–	4.118
313.15 K, x1 = 0.6979	–	30.76	–
313.15 K, x1 = 0.7065	909.07	–	2.846
313.15 K, x1 = 0.7994	–	30.4	–
313.15 K, x1 = 0.8069	900.47	–	2.091
313.15 K, x1 = 0.8819	893.54	–	1.673
313.15 K, x1 = 0.8978	–	29.71	–
313.15 K, x1 = 1	885.62	29.23	1.302
318.15 K, x1 = 0.1	–	43.02	–
318.15 K, x1 = 0.1998	–	38.31	–
318.15 K, x1 = 0.2994	–	35.73	–
318.15 K, x1 = 0.4073	–	33.43	–
318.15 K, x1 = 0.4983	–	32.08	–
318.15 K, x1 = 0.5934	–	30.99	–
318.15 K, x1 = 0.6979	–	30.23	–
318.15 K, x1 = 0.7994	–	29.83	–
318.15 K, x1 = 0.8978	–	29.14	–
318.15 K, x1 = 1	–	28.78	–
323.15 K, x1 = 0.1	–	41.72	–
323.15 K, x1 = 0.1998	–	37.83	–
323.15 K, x1 = 0.2994	–	34.87	–
323.15 K, x1 = 0.4073	–	32.92	–
323.15 K, x1 = 0.4983	–	31.67	–
323.15 K, x1 = 0.5934	–	30.57	–
323.15 K, x1 = 0.6979	–	29.67	–
323.15 K, x1 = 0.7994	–	29.24	–
323.15 K, x1 = 0.8978	–	28.53	–
323.15 K, x1 = 1	–	28.11	–
325.15 K, x1 = 0.0521	988.47	–	1.5
325.15 K, x1 = 0.0725	989.64	–	2.188
325.15 K, x1 = 0.1039	990.55	–	–
325.15 K, x1 = 0.2091	978.98	–	8.128
325.15 K, x1 = 0.3101	958.91	–	8.263
325.15 K, x1 = 0.4096	940.1	–	–
325.15 K, x1 = 0.5109	924.16	–	4.171
325.15 K, x1 = 0.608	911.05	–	2.876
325.15 K, x1 = 0.7065	900.09	–	2.076
325.15 K, x1 = 0.8069	891.49	–	1.607
325.15 K, x1 = 0.8819	884.6	–	1.324
325.15 K, x1 = 1	876.71	–	1.065
333.15 K, x1 = 0.0521	982.25	–	1.18
333.15 K, x1 = 0.0725	982.66	–	1.651
333.15 K, x1 = 0.1	–	39.98	–
333.15 K, x1 = 0.1039	982.5	–	2.474
333.15 K, x1 = 0.1998	–	36.47	–
333.15 K, x1 = 0.2091	969.64	–	5.188
333.15 K, x1 = 0.2994	–	33.61	–
333.15 K, x1 = 0.3101	949.58	–	5.244
333.15 K, x1 = 0.4073	–	31.68	–
333.15 K, x1 = 0.4096	930.91	–	4.021
333.15 K, x1 = 0.4983	–	30.32	–
333.15 K, x1 = 0.5109	914.98	–	2.894
333.15 K, x1 = 0.5934	–	29.76	–
333.15 K, x1 = 0.608	901.91	–	2.109
333.15 K, x1 = 0.6979	–	28.76	–
333.15 K, x1 = 0.7065	891	–	1.592
333.15 K, x1 = 0.7994	–	27.93	–
333.15 K, x1 = 0.8069	882.42	–	1.277
333.15 K, x1 = 0.8819	875.57	–	1.09
333.15 K, x1 = 0.8978	–	27.7	–
333.15 K, x1 = 1	867.73	27.17	0.9
343.15 K, x1 = 0.0521	975.55	–	0.942
343.15 K, x1 = 0.0725	975.29	–	1.281
343.15 K, x1 = 0.1039	974.18	–	1.827
343.15 K, x1 = 0.2091	960.1	–	3.514
343.15 K, x1 = 0.3101	940.04	–	3.54
343.15 K, x1 = 0.4096	921.51	–	2.81
343.15 K, x1 = 0.5109	905.65	–	2.12
343.15 K, x1 = 0.608	892.65	–	1.607
343.15 K, x1 = 0.7065	881.79	–	1.264
343.15 K, x1 = 0.8069	873.22	–	1.074
343.15 K, x1 = 0.8819	866.45	–	0.906
343.15 K, x1 = 1	858.66	–	0.768
